“And” between values parts separate entries of the source, which are not always exact repeats. Identical values can stand only once. Like-named read-outs stand apart in the source and are kept apart here.
Columns and labels:
[1] = cytotoxicity against HepG2 cells; format: cell-based; details: human; HepG2; read-out: inhibition IC50 vs HepG2
Experimental: Cytotoxicity was evaluated in human HepG2 liver cells, using an MTT assay. Briefly, HepG2 cells were cultured in complete Dulbecco’s modified Eagle’s medium (DMEM; Gibco-Invitrogen, No. 11995-065) prepared by supplementing DMEM with 10% heat inactivated FBS (Gibco-Invitrogen, No. 16000-036), 100 units/mL penicillin, and 100 µg/mL streptomycin. Cell viability was assessed using trypan blue. Ninety-six-well plates were seeded with 2 × 10^4 cells per well and incubated at 37 °C overnight in a humidified 5% CO2 atmosphere. Test compound plates were prepared with an INTEGRA assist plus station and 96-well plates containing 11 duplicate 2-fold serial dilutions of test compound suspended in DMSO. The diluted test compound was then added to the corresponding well preseeded with HepG2 cells. […] After incubation, 20 µL of a 0.1 mg/mL solution of resazurin diluted in PBS was added to each well, and all plates were subsequently incubated for 3–4 h in an incubator. Absorbance was determined with the Molecular Devices SpectraMax plate reader. Three independent experiments, each in duplicate, were performed, and the IC50 values were determined using GraphPad Prism software (Version 10) using the non-linear regression equation (sigmoidal dose-response, variable slope).

[2] = tested on: P. falciparum mutant T111 lines; assay: drug susceptibility of T111-selected cyt b mutant lines; format: cell-based, Plasmodium falciparum; details: Plasmodium falciparum, DD2, Supplementary Table 4
Experimental: DNA extractions were performed on clonal parasites using the QIAamp DNA extraction kit (QIAGEN Inc, Valencia, CA) or ZYMO Quick gDNA Miniprep kit (Zymo Research Corp, Irvine, CA). For sequencing of the open reading frame of pfcytb, PCR was performed with genomic DNA using forward and reverse flanking primers for cyt b primer 1: 5’-[…]-3’ and primer 2: 5’-[…]-3’. PCR products were subjected to enzymatic cleanup with ExoSAP-IT (Thermo Fisher Scientific) and sent for Sanger sequencing (Eurofins Genomics, Louisville, KY) with PCR primer 2 paired with an internal forward primer: 5’-[…]-3’ and an internal reverse primer: 5’-[…]-3’. Sequences were assembled using 4Peaks software (Nucleobytes, Amsterdam, Netherlands) and aligned with Clustal Omega (EMBL-EBI). For sequencing of the open reading frame of pfdhodh, PCR was performed with genomic DNA using forward primer: 5’-[…]-3’ and reverse primer: 5’-[…]-3’. PCR products were prepared for Sanger sequencing and analyzed as described above, except using two forward primers: 5’-[…]-3’ and 5’-[…]-3’ and with two reverse primers: 5’-[…]-3’ and 5’-[…]-3’.
(§1) Drug susceptibility assays against P. falciparum strains were performed using a SYBR Green based assay. D6 and Dd2 were obtained from MR4. Tm90-C2B was obtained from WRAIR. Dd2-D1^I22L and ELQ-300 were obtained from VAPORHCS. D10yDHODH was obtained as a courtesy from Dr. Akhil Vaidya at Drexel University. P. yoelii ATV^r and ELQ-300^r clones were obtained from VAPORHCS.

[3] = tested on: P. falciparum D6, Dd2, Tm90-C2B, Dd2-D1^I22L, D10yDHODH; assay: microbe, parasite or virus in culture; format: cell-based, Plasmodium falciparum; details: Plasmodium falciparum
Experimental: as §1

[4] = cited from earlier work
[5] = parameters: method as in reviewer #3 remark; details: in humans; ref reviewer #3 remark; cited from earlier work
[6] = tested on: P. cynomolgi hypnozoites and schizonts; assay: in vitro liver-stage P. cynomolgi assay in primary rhesus hepatocytes; format: cell-based, Plasmodium cynomolgi; details: read-out: inhibition IC50
Experimental: (§2) The liver-stage P. cynomolgi assay was designed to identify anti-hypnozoite drugs utilizing a 384-well in vitro culture system[31],[37]. Briefly, cryopreserved primary simian hepatocytes (donor lots XGB, OQB, and QHO: BioIVT, Inc.) were seeded in collagen-coated 384-well plates and infected with P. cynomolgi bastianellii (B strain) sporozoites dissected from infected Anopheles dirus mosquitoes. Test compounds were solubilized in 100% DMSO and serially diluted 2-fold to generate up to a 12-point dose-response curve, maintaining a final DMSO concentration of 0.1% across all wells. Two distinct treatment modes were evaluated. For the prophylactic assay, to assess the prevention of infection, compound exposure began 1-hour post-infection with daily media changes on Days 1 and 2. For the radical cure assay, to assess activity against established liver forms, drugs were administered daily from Day 4 through Day 7 post-infection. […] For readout on Day 8, plates were fixed and stained via immunofluorescence to visualize parasite forms (hypnozoites and schizonts) and hepatocyte nuclei, and images were acquired using an Operetta CLS high-content imaging system (PerkinElmer). Host hepatocyte viability was measured in parallel to determine compound toxicity. Parasite forms were automatically quantified using Harmony 4.9 software, and percent inhibition and toxicity were calculated relative to in-plate DMSO vehicle controls. IC50 and CC50 (half-maximal cytotoxic concentrations) were determined by fitting dose-response data to a four-parameter logistic (variable slope) model using a custom Python script incorporating a grid search algorithm.

rhesus hepatocytes = assay: host hepatocyte viability in the P. cynomolgi assay; format: cell-based; details: radical cure mode; read-out: cytotoxicity CC50
Experimental: as §2

[7] = as above; format: cell-based, rhesus; details: rhesus monkey; radical cure mode; read-out: cytotoxicity CC50
Experimental: as §2

[8] = tested on: P. falciparum NF54 oocysts in mosquitoes; assay: tarsal contact assay; format: in vivo, P. falciparum in Anopheles gambiae G3; details: 5% by weight film, 6 min contact
Experimental: The tarsal assay using a thin film was performed. For preparation of a thin film, 25 mL xylenes and 1.0 g low density polyethylene polymer were combined on the lid of a glass petri dish (6 cm) and heated at 150 °C until the polymer was dissolved. Xylenes were occasionally replenished upon evaporation. A solution of xylenes containing […] prodrug was then added to the above solution. […] The crude polymer thin film was then put underneath the glass petri dish, and the assembled apparatus was heated on a hot plate with a weight placed on top. The resulting extruded polymer thin film containing the 5% (w/w) […] prodrug in low-density polyethylene (LDPE) was allowed to cool and removed from the petri dish lid. […] After exposure, the mosquitoes were immediately transferred to a cage and one hour later provided with cultured P. falciparum NF54 gametocyte-infected erythrocytes using a membrane feeder. […] On Day 7 post-infection, mosquitoes were aspirated into 80% ethanol and incubated at -20 °C for 10 min before being transferred to 1X PBS for dissection. […] Midguts were imaged and oocysts counted at 100× magnification on an Olympus Inverted CKX41 microscope to quantify oocyst prevalence and intensity.

[9] = pilot safety study in rhesus monkeys; format: in vivo; details: response to reviewers
blood-stage P. yoelii [10] = assay: 4-day suppression murine model, oral; format: in vivo, P. yoelii in CF1 mice
Source text: (§3) Animals were housed at the VAPORHCS in Thoren Maxi-Miser microisolator cages (78 sq. in. floor space) with a maximum density of five females or four males per cage. Cages were maintained on a 12-h light/dark cycle and provided with autoclaved nesting materials (nestlets) for environmental enrichment. All mice had ad libitum access to food and water. Four- to five-week-old female and male outbred CF1 mice (Charles River Laboratories, Raleigh, NC, USA) were randomly assigned to treatment and control groups using a simple randomization procedure (e.g., computer-generated random numbers) to ensure balanced distribution of baseline body weights and starting parasitemia levels across all cohorts. Groups of four mice (n = 4, mean body weight of each group was ~30 g) were infected intravenously with 3.5 × 10^4 P. yoelii (Kenya strain, MRA-428) from a donor animal. Drug administration commenced the day after the animals were inoculated (Day 1). The test drug or the drug combination was dissolved in PEG-400 and administered by oral gavage once daily for 4 successive days in the 4-day suppression model, but only once on Day 1 in the single-dose cure model. Blood was collected via the tail vein with the aid of a syringe needle on Day 5 and then at weekly intervals through Day 28. Blood films were Giemsa-stained and examined microscopically to determine the level of parasitemia. All mice were observed daily to assess clinical signs. Animals with observable parasitemia following the experiments were euthanized; animals cleared of parasitemia from their bloodstream were observed daily with assessment of parasitemia performed weekly until Day 28, at which point, the animal(s) were scored as cured of the infection and then humanely euthanized. All treated mice with a negative smear on Day 28 were considered cured (100% protection). […]

blood-stage P. yoelii [11] = assay: single-dose cure murine model, oral; format: in vivo, P. yoelii in CF1 mice
Source text: as §3

[12] = tested on: luciferase-expressing P. berghei sporozoites; assay: liver-stage prophylaxis murine model with IVIS bioluminescence imaging; format: in vivo, P. berghei in Albino C57BL/6 mice; details: Days -1, 0, 1
Source text: Four- to six-week-old female inbred Albino C57BL/6 mice (18–22 g, Jackson Laboratories, Bar Harbor, ME, USA) were utilized. Animals were assigned unique study numbers via ear tags and cage cards and were randomly assigned to treatment or control groups (n = 5 per group) using a weigh-stratified randomization procedure. All animals were quarantined and acclimatized for 7 days prior to study initiation and were housed in a 12:12 light/dark cycle with food and water provided ad libitum. Mice were infected intravenously with 10^4 luciferase-expressing P. berghei sporozoites (ANKA strain) via tail vein injection on Day 0. Drugs were dissolved in PEG-400 and administered orally once per day on Day -1, Day 0, and Day 1. […] Infection reduction was assessed by comparing the bioluminescence signals emitted by treated groups with signals emitted by the vehicle control-treated group at that time point. Later blood-stage parasitemia was determined via flow cytometry. […] Long-term blood-stage efficacy was evaluated starting on Day 6 post-infection and continued for up to 31 days using flow cytometry.
In vivo antimalarial efficacy studies were performed as described above.

[13] = Plasmodium cynomolgi, Hepatocyte, in Macaca mulatta, prophylactic mode, hypnozoite
[14] = Plasmodium cynomolgi, Hepatocyte, in Macaca mulatta, prophylactic mode, schizont
[15] = Plasmodium cynomolgi, Hepatocyte, in Macaca mulatta, radical cure mode, hypnozoite
[16] = Plasmodium cynomolgi, Hepatocyte, in Macaca mulatta, radical cure mode, schizont

CCN(CC)CCCC(C)Nc1ccnc2cc(Cl)ccc12 (stereo not drawn) [CQ, chloroquine]
IC50 at 24 h [1]: 68600 nM
IC50 ([2]; Dd2): 181 ± 15 nM
IC50 ([2]; Dd2-A131S-140I-259L-264L): 205 ± 21 nM
IC50 ([2]; Dd2-B131S-140I-259L-264L): 168 ± 31 nM
IC50 ([2]; Dd2-D0119L-131S-259L (pfdhodh mutation)): 210 ± 34 nM
IC50 ([2]; Dd2-D1131S-140I-259L (pfdhodh mutation)): 162 ± 18 nM
IC50 ([3]; read-out: in vitro IC50 vs P. falciparum, D6): 14 ± 0.7 nM
IC50 ([3]; read-out: in vitro IC50 vs P. falciparum, D10yDHODH): 79 ± 16 nM
IC50 ([3]; read-out: in vitro IC50 vs P. falciparum, Dd2-D1^I22L (ELQ-300-resistant)): 209 ± 26 nM
IC50 ([3]; read-out: in vitro IC50 vs P. falciparum, Tm90-C2B (cyt b Y268S, ATV-resistant)): 211 ± 7.6 nM
T1/2 ([4]; healthy mice, ref PMID: 21646487): about 46 h
T1/2 [5]: 480 to 960 h

CNC(=O)c1ccc(-c2cnc3cnc(C(=O)N(C)c4ccc(Cl)cc4)cn23)cc1 [KDU691]
IC50 ([6]; prophylactic mode, hypnozoite): 120 nM
IC50 ([6]; prophylactic mode, schizont): 98 nM
IC50 ([6]; radical cure mode, hypnozoite): > 20000 nM
IC50 ([6]; radical cure mode, schizont): 190 nM
CC50 (rhesus hepatocytes): > 20000 nM

CO[C@@H]1[C@@H](OC)[C@H](C)[C@@](O)(CC(=O)O)O[C@H]1[C@H](C)[C@H]1O[C@@]2(CC[C@@](C)([C@H]3CC[C@@](C)([C@@H]4O[C@@H]([C@H]5O[C@](C)(O)[C@H](C)C[C@@H]5C)C[C@@H]4O[C@@H]4C[C@H](OC)[C@@H](OC)[C@H](C)O4)O3)O2)C[C@H](O)[C@H]1C [MAD, maduramicin]
IC50 [6, 13]: < 0.98 nM
IC50 [6, 14]: < 0.98 nM
IC50 [6, 15]: 21 nM
IC50 [6, 16]: 41 nM
CC50 at 4 days [7]: 360 nM

CCOC(=O)Oc1c2ccc(Oc3ccc(OC(F)(F)F)cc3)cc2nc2cc(Cl)cc(F)c12 [T111 prodrug]
reduction in oocyst intensity (inhibition) [8]: 97.6%
reduction in oocyst prevalence (inhibition) [8]: 92.5%
tolerability [9]: well-tolerated

COc1cc(C)c2c(Oc3cccc(C(F)(F)F)c3)c(OC)cc(NC(C)CCCN)c2n1 (stereo not drawn) [TQ, tafenoquine]
ED50 of TQ (blood-stage P. yoelii [10]; TQ + 0.03 mg/kg/d T111): 0.59 mg/kg/day
ED50 of TQ (blood-stage P. yoelii [10]; TQ + 0.06 mg/kg/d T111): 0.12 mg/kg/day
ED50 of TQ (blood-stage P. yoelii [10]; TQ + 0.12 mg/kg/d T111): 0.05 mg/kg/day
ED50 of TQ (blood-stage P. yoelii [10]; TQ alone, female CF1 mice): 1.70 mg/kg/day
% survival through Day 28 (blood-stage P. yoelii [11]; TQ 15 + T111 0 mg/kg): 0%
number of mice cured on Day 28 (blood-stage P. yoelii [11]; TQ 15 + T111 0 mg/kg): 0/4
parasitemia burden on Day 5 (blood-stage P. yoelii [11]; TQ 15 + T111 0 mg/kg): 0
% survival through Day 28 (blood-stage P. yoelii [11]; TQ 20 + T111 0 mg/kg): 25%
number of mice cured on Day 28 (blood-stage P. yoelii [11]; TQ 20 + T111 0 mg/kg): 1/4
parasitemia burden on Day 5 (blood-stage P. yoelii [11]; TQ 20 + T111 0 mg/kg): 0
% survival through Day 28 (blood-stage P. yoelii [11]; TQ 30 + T111 0 mg/kg): 75%
number of mice cured on Day 28 (blood-stage P. yoelii [11]; TQ 30 + T111 0 mg/kg): 3/4
parasitemia burden on Day 5 (blood-stage P. yoelii [11]; TQ 30 + T111 0 mg/kg): 0
% survival through Day 28 (blood-stage P. yoelii [11]; TQ 40 + T111 0 mg/kg): 100%
number of mice cured on Day 28 (blood-stage P. yoelii [11]; TQ 40 + T111 0 mg/kg): single-dose cure in all treated mice and 4/4
parasitemia burden on Day 5 (blood-stage P. yoelii [11]; TQ 40 + T111 0 mg/kg): 0
IC50 [6, 13]: 180 nM
IC50 [6, 14]: 170 nM
IC50 [6, 15]: 8100 nM
IC50 [6, 16]: 9800 nM
CC50 at 4 days [7]: > 20000 nM
protection from liver-stage infection ([12]; 1 mg/kg/day oral): did not clear liver-stage infection
protection from liver-stage infection ([12]; 10 mg/kg/day oral): full protection
T1/2 ([4]; mouse liver, ref internal data from WRAIR): 75 h
T1/2 ([4]; mouse plasma, ref internal data from WRAIR): 50 h
T1/2 [5]: 336 h
